From the Deep4Chem optical property database

Assay: solvent given as SMILES

Compound CC(=O)c1nc(-c2ccc(N(c3ccccc3)c3ccccc3)cc2)oc1C has an absorption maximum (in CC#N) of 332 nm, an absorption maximum (in CCCCCC) of 324 nm and an absorption maximum (in CCO) of 333 nm. It also gave an absorption maximum (in CCOC(C)=O) of 326 nm, an absorption maximum (in CCOCC) of 326 nm and an absorption maximum (in ClCCl) of 328 nm.
In the case of CCC1(CC)c2cc(N(C)C)ccc2-c2ccc(C(F)(F)F)cc21, the absorption maximum (in C1CCCCC1) was 341 nm, the absorption maximum (in CC#N) was 302 nm and the absorption maximum (in CCO) was 342 nm. The absorption maximum (in CCOCC) was 342 nm, the absorption maximum (in CS(C)=O) was 350 nm and the absorption maximum (in ClCCl) was 344 nm. The absorption maximum (in c1ccccc1) was 346 nm.
For Nc1n[n+]([O-])c2cc(F)ccc2[n+]1[O-], the absorption maximum (in CC#N) was 489 nm and the absorption maximum (in O) was 468 nm.
Work on CCCCCCCCOc1cc(/C=C/c2cc[n+](Cc3ccc(C)cc3)cc2)c(OCCCCCCCC)cc1/C=C/c1cc[n+](Cc2ccc(C)cc2)cc1 yielded an absorption maximum (in ClCCl) of 490 nm.
For Fc1ccc2cc3cccc[n+]3cc2c1, the absorption maximum (in O) was 400 nm.
O=C1NC(=O)C(c2c[nH]c3ccccc23)=C1c1c[nH]c2ccccc12 showed an absorption maximum (in C1CCOC1) of 450 nm, an absorption maximum (in CC#N) of 446 nm and an absorption maximum (in CC(C)OC(C)C) of 443 nm. It also gave an absorption maximum (in CCCCOCCCC) of 445 nm, an absorption maximum (in CCO) of 460 nm and an absorption maximum (in CCOC(C)=O) of 445 nm. It also gave an absorption maximum (in CN(C)C=O) of 454 nm, an absorption maximum (in Cc1ccccc1) of 447 nm and an absorption maximum (in ClCCl) of 448 nm.
For Fc1c(F)c(-n2c3ccccc3c3ccccc32)c(F)c(F)c1-c1nnc(-c2ccccc2)o1, the absorption maximum (in Cc1ccccc1) was 344 nm.
Compound COc1ccc(-c2nc(-c3ccccc3)c(N(C)C)[se]2)cc1 has an absorption maximum (in ClC(Cl)Cl) of 339 nm.
For CC[n+]1c(/C=C/c2c([O-])ccc3ccc(=O)oc23)sc2ccccc21, the absorption maximum (in C1CCOC1) was 607.14 nm, the absorption maximum (in CC#N) was 579.15 nm and the absorption maximum (in CC(C)=O) was 590.56 nm. It also gave an absorption maximum (in CO) of 519.07 nm, an absorption maximum (in CS(C)=O) of 581.28 nm and an absorption maximum (in Cc1ccccc1) of 623.57 nm. It also gave an absorption maximum (in ClC(Cl)Cl) of 593.91 nm, an absorption maximum (in ClCCl) of 597.56 nm and an absorption maximum (in O) of 492.76 nm.
In the case of CC1=CC(C)=[N+]2C1=C(C1=C3C(C)=CC(C)=[N+]3[B-](F)(F)n3c(C)cc(C)c31)c1c(C)cc(C)n1[B-]2(F)F, the absorption maximum (in ClC(Cl)Cl) was 515 nm.
Compound c1ccc(-c2nc(-c3ccc(N4c5ccccc5C(c5ccccc5)(c5ccccc5)c5ccccc54)cc3)cc(-c3ccc(N4c5ccccc5C(c5ccccc5)(c5ccccc5)c5ccccc54)cc3)n2)cc1 has an absorption maximum (in Cc1ccccc1) of 373 nm.
In the case of N#Cc1c(-n2c3ccc(I)cc3c3cc(I)ccc32)c(C#N)c(-n2c3ccc(I)cc3c3cc(I)ccc32)c(-n2c3ccc(I)cc3c3cc(I)ccc32)c1-n1c2ccc(I)cc2c2cc(I)ccc21, the absorption maximum (in Cc1ccccc1) was 384 nm.
Compound CC(C)c1ccc2ccc3cccc4ccc1c2c34 has an absorption maximum (in CCCCCC) of 338 nm, an absorption maximum (in CO) of 337 nm and an absorption maximum (in ClCCl) of 340 nm.
Work on c1ccc(-c2nc(-c3ccccc3)c(N(c3ccccc3)c3ccccc3)[se]2)cc1 yielded an absorption maximum (in ClC(Cl)Cl) of 384 nm.
In the case of CCCCCCCCN1C(=O)c2ccc3c4c(-c5ccc6c7ccccc7n(-c7ccccc7)c6c5)cc5c6c(cc(-c7ccc8c9ccccc9n(-c9ccccc9)c8c7)c(c7ccc(c2c37)C1=O)c64)C(=O)N(CCCCCCCC)C5=O, the absorption maximum (in ClC(Cl)Cl) was 567 nm.
With N#C/C(=C\c1ccc(C#N)cc1)c1nc(-c2ccccc2)cs1 the absorption maximum (in CC#N) was 370 nm, the absorption maximum (in CCO) was 375 nm and the absorption maximum (in CN(C)C=O) was 376 nm. The absorption maximum (in Cc1ccccc1) was 380 nm and the absorption maximum (in ClCCl) was 375 nm.
CC1=CC(c2ccc3ccccc3c2)=[O+][B-]2(OC(=O)C(=O)O2)O1 showed an absorption maximum (in CC#N) of 400 nm and an absorption maximum (in ClC(Cl)(Cl)Cl) of 400 nm.
F[B-]1(F)n2c(Nc3cccc4cccnc34)ccc2C(c2ccccc2)=C2C=CC(Cl)=[N+]21 showed an absorption maximum (in C1CCCCC1) of 560 nm, an absorption maximum (in CC#N) of 547 nm and an absorption maximum (in Cc1ccccc1) of 561 nm. For the same compound, the absorption maximum (in ClC(Cl)Cl) was 555 nm.
CCCCCCOc1ccc(N(c2ccc(OCCCCCC)cc2)c2ccc(-c3sc(-c4ccc(N(c5ccc(OCCCCCC)cc5)c5ccc(OCCCCCC)cc5)cc4)c4nc(C(=O)OCC)c(C(=O)OCC)nc34)cc2)cc1 gave an absorption maximum (in ClCCl) of 665 nm.
